ChEMBL document CHEMBL5665443, “Enzyme Inhibitor Single Concentration assay results for EUbOPEN Chemogenomics Library” (2024)

Columns and labels:
Settings in all cases: Compound Concentration 10.0 uM, Hit No
[1] = target: Methyl-CpG-binding domain protein 4 (Homo sapiens) (UniProt O95243);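 note: MBD4 activity read as fluorescence at 594 nm from cleavage and release of a quenched duplex DNA oligonucleotide, with APE1 coupled to incise the strand and raise turnover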
Description: Inhibition of MBD4 by quantifying inhibition of MBD4-mediated cleavage and dissociation of quenched duplex DNA oligonucleotides, measured as fluorescence at 594 nm. To generate a functional strand incision and increase turn-over this assay is coupled to APE1.

[2] = target: DNA-3-methyladenine glycosylase (Homo sapiens) (UniProt P29372);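 note: enzyme assay where MPG cuts a quenched duplex DNA oligonucleotide probe, paired with APE1 for strand incision and turnover, read as fluorescence at 594 nm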
Sequence of DNA-3-methyladenine glycosylase (Homo sapiens) (P29372 whole entry): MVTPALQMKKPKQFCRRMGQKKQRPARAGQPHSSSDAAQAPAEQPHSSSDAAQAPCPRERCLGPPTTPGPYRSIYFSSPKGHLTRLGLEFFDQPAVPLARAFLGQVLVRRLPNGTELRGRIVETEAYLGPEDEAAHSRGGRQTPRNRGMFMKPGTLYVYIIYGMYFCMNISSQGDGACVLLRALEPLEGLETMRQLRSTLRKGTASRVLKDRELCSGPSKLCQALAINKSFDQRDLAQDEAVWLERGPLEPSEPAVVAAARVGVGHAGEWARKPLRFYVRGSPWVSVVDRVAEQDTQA
Description: Inhibition of MPG by quantifying inhibition of MPG-mediated cleavage and dissociation of quenched duplex DNA oligonucleotides, measured as fluorescence at 594 nm. To generate a functional strand incision and increase turn-over this assay is coupled to APE1.

[3] = target: T1, Adenine DNA glycosylase (Homo sapiens) (UniProt Q9UIF7);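 note: human MUTYH activity read as 594 nm fluorescence from cleavage and release of a quenched DNA duplex, coupled with APE1 for strand incision, lower signal meaning inhibition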
T1 sequence (whole entry): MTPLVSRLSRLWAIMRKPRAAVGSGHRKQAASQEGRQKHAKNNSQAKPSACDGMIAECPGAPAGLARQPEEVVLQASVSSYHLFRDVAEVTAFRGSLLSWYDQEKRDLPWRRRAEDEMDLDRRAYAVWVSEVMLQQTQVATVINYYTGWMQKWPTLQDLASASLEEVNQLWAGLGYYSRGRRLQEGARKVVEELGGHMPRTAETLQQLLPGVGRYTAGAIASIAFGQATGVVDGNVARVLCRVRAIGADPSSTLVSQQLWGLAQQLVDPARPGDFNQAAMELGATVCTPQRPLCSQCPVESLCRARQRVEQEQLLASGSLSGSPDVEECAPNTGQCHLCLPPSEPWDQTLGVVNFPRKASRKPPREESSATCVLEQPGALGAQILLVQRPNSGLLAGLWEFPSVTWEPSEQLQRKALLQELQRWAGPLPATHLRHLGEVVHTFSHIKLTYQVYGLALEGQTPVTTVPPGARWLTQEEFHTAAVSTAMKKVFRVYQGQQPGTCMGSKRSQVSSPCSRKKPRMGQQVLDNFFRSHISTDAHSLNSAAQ
Description: Inhibition of MUTYH by quantifying inhibition of MUTYH-mediated cleavage and dissociation of quenched duplex DNA oligonucleotides, measured as fluorescence at 594 nm. To generate a functional strand incision and increase turn-over this assay is coupled to APE1.

[4] = target: Endonuclease 8-like 1 (Homo sapiens) (UniProt Q96FI4);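 note: fluorescence at 594 nm from quenched duplex DNA oligonucleotides released by NEIL1 cleavage and strand separation, reported as reduction of this enzyme activity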
Sequence of Endonuclease 8-like 1 (Homo sapiens) (Q96FI4 whole entry): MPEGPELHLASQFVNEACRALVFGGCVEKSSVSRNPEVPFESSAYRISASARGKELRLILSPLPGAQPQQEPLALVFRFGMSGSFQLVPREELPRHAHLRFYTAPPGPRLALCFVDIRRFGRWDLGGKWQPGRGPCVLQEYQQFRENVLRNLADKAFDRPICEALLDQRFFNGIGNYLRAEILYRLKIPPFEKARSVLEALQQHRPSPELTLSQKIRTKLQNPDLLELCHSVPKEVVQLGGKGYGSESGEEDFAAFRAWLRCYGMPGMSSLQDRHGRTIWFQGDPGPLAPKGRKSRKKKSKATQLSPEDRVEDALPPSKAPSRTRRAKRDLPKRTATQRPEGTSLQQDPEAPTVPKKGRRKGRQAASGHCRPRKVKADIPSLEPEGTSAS
Description: Inhibition of NEIL1 by quantifying inhibition of NEIL1-mediated cleavage and dissociation of quenched duplex DNA oligonucleotides, measured as fluorescence at 594 nm.

[5] = target: T2, Endonuclease 8-like 2 (Homo sapiens) (UniProt Q969S2);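 note: fluorescence at 594 nm reports NEIL2 cutting and release of a quenched double-stranded DNA oligo substrate, reduced signal read as inhibition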
T2 sequence (whole entry): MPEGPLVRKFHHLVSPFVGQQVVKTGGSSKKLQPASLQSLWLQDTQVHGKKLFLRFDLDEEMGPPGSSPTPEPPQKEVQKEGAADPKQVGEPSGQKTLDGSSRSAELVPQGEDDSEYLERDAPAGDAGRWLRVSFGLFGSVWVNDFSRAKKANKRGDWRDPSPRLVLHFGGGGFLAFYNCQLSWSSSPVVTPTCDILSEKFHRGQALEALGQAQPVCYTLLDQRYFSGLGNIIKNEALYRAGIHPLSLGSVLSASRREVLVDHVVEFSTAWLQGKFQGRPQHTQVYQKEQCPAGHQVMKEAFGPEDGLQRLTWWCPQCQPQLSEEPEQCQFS
Description: Inhibition of NEIL2 by quantifying inhibition of NEIL2-mediated cleavage and dissociation of quenched duplex DNA oligonucleotides, measured as fluorescence at 594 nm.

[6] = target: T3, Endonuclease III-like protein 1 (Homo sapiens) (UniProt P78549);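 note: enzyme assay tracking NTHL1 cutting and release of a quenched double-stranded DNA oligo substrate, read as fluorescence at 594 nm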
T3 sequence (whole entry): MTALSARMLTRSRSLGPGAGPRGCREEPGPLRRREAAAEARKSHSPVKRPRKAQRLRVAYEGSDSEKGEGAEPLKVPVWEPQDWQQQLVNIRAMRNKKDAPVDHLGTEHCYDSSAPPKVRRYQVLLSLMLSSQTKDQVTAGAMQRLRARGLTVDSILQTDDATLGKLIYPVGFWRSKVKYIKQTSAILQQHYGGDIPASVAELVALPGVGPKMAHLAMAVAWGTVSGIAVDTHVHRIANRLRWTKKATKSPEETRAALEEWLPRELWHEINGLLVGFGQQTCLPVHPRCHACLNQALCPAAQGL
Description: Inhibition of NTHL1 by quantifying inhibition of NTHL1-mediated cleavage and dissociation of quenched duplex DNA oligonucleotides, measured as fluorescence at 594 nm.

[7] = target: N-glycosylase/DNA lyase (Homo sapiens) (UniProt O15527);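 note: OGG1 cleavage of a quenched duplex DNA oligonucleotide, coupled to APE1 for strand incision, read as fluorescence at 594 nm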
Sequence of N-glycosylase/DNA lyase (Homo sapiens) (O15527 whole entry): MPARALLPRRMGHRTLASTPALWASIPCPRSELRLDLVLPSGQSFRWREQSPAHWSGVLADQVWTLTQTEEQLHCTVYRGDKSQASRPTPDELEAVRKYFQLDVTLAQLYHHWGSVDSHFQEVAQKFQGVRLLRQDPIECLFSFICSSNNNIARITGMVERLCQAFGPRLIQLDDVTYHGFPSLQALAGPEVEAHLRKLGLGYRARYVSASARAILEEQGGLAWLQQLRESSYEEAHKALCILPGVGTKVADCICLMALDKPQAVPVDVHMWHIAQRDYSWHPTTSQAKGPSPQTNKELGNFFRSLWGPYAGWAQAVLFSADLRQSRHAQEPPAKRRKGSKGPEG
Description: Inhibition of OGG1 by quantifying inhibition of OGG1-mediated cleavage and dissociation of quenched duplex DNA oligonucleotides, measured as fluorescence at 594 nm. To generate a functional strand incision and increase turn-over this assay is coupled to APE1.

[8] = target: T4, Single-strand selective monofunctional uracil DNA glycosylase (Homo sapiens) (UniProt Q53HV7);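 note: enzymatic SMUG1 assay coupled with APE1, reading fluorescence at 594 nm released when a quenched double-stranded DNA oligonucleotide substrate is cleaved and separated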
T4 sequence (whole entry): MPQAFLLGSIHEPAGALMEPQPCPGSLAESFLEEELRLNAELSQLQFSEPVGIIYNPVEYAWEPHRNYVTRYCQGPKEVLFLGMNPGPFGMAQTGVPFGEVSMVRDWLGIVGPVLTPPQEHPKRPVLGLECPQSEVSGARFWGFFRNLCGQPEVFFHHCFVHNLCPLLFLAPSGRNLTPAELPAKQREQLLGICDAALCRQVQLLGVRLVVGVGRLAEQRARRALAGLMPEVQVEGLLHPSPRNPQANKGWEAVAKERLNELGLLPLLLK
Description: Inhibition of SMUG1 by quantifying inhibition of SMUG1-mediated cleavage and dissociation of quenched duplex DNA oligonucleotides, measured as fluorescence at 594 nm. To generate a functional strand incision and increase turn-over this assay is coupled to APE1.

[9] = target: G/T mismatch-specific thymine DNA glycosylase (Homo sapiens) (UniProt Q13569);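 note: human TDG cleavage of quenched duplex DNA oligonucleotides coupled to APE1, strand release read as fluorescence at 594 nm, inhibition of TDG activity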
Sequence of G/T mismatch-specific thymine DNA glycosylase (Homo sapiens) (Q13569 whole entry): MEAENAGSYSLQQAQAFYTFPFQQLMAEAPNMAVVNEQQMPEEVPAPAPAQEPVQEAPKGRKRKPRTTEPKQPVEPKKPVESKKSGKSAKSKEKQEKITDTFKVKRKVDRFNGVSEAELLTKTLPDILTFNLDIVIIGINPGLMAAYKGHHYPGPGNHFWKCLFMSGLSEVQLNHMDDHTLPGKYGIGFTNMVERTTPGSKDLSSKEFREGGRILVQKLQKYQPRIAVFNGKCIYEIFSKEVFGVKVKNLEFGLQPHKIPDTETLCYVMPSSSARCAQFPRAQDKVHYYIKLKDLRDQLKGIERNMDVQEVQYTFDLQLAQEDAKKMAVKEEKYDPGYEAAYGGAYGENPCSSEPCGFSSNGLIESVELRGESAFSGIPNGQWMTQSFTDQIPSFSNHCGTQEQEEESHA
Description: Inhibition of TDG by quantifying inhibition of TDG-mediated cleavage and dissociation of quenched duplex DNA oligonucleotides, measured as fluorescence at 594 nm. To generate a functional strand incision and increase turn-over this assay is coupled to APE1.

[10] = target: Uracil-DNA glycosylase (Homo sapiens) (UniProt P13051);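 note: UNG excision on a quenched double-stranded DNA oligo probe, with APE1 added for strand incision and turnover, read as fluorescence at 594 nm as strands separate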
Sequence of Uracil-DNA glycosylase (Homo sapiens) (P13051 whole entry): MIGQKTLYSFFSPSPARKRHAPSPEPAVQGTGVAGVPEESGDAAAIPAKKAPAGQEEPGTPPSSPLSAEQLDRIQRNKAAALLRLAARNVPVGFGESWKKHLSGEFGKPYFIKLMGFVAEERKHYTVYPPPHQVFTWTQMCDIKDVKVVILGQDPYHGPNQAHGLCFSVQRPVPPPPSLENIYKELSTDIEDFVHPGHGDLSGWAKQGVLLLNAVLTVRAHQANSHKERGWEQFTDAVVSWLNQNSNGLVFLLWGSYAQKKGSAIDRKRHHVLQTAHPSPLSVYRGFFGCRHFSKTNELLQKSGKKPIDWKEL
Description: Inhibition of UNG by quantifying inhibition of UNG-mediated cleavage and dissociation of quenched duplex DNA oligonucleotides, measured as fluorescence at 594 nm. To generate a functional strand incision and increase turn-over this assay is coupled to APE1.

Sequence of Methyl-CpG-binding domain protein 4 (Homo sapiens) (O95243 whole entry, the tested form may be a part): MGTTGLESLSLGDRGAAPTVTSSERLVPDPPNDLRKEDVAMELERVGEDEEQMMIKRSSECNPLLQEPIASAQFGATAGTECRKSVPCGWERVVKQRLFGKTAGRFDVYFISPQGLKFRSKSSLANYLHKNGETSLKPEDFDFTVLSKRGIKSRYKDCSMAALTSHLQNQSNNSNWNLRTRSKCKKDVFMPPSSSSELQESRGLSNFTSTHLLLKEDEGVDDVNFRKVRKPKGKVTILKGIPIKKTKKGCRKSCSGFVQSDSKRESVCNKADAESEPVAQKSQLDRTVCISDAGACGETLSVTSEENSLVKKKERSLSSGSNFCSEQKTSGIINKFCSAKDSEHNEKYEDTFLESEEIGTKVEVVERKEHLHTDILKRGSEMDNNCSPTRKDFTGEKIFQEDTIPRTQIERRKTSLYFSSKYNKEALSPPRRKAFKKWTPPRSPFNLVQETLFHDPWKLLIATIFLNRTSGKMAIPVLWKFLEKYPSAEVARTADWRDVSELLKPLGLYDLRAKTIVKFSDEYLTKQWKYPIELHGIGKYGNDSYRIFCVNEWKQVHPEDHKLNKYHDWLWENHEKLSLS

`O=C1NCN(c2ccccc2)C12CCN(CCCOc1ccc(F)cc1)CC2` gave an inhibition [1] of 6.25%, an inhibition [2] of -9.19% and an inhibition [3] of -5.23%. For the same compound, the inhibition [4] was -1.54%, the inhibition [5] was 2.26% and the inhibition [6] was 4.86%. It also gave an inhibition [7] of -4.77%, an inhibition [8] of 13.1% and an inhibition [9] of 13.9%. It also gave an inhibition [10] of -6.4%.

Work on `NC(N)=Nc1nc(CSCC/C(N)=N/S(N)(=O)=O)cs1` yielded an inhibition [1] of 6.83%, an inhibition [2] of 11.5% and an inhibition [3] of 21.8%. For the same compound, the inhibition [4] was 9.58%, the inhibition [5] was 17.5% and the inhibition [6] was -2.47%. For the same compound, the inhibition [7] was 2.35%, the inhibition [8] was -5.17% and the inhibition [9] was 13.5%. It also gave an inhibition [10] of -4.9%.

With `CSc1ccc(C(=O)/C=C/c2cc(C)c(OC(C)(C)C(=O)O)c(C)c2)cc1` the inhibition [1] was 77.3%, the inhibition [2] was -8.02% and the inhibition [3] was 16.2%. For the same compound, the inhibition [4] was 0.467%, the inhibition [5] was 2.06% and the inhibition [6] was 2%. The inhibition [7] was 18.2%, the inhibition [8] was 7.83% and the inhibition [9] was 99.6%. The inhibition [10] was -1.57%.

For `Cc1cc(Cn2cnc3c2C[C@@H](C(=O)O)N(C(=O)C(c2ccccc2)c2ccccc2)C3)ccc1N(C)C`, the inhibition [1] was 46%, the inhibition [2] was 19.4% and the inhibition [3] was 20.9%. For the same compound, the inhibition [4] was 10.3%, the inhibition [5] was -0.733% and the inhibition [6] was -6.87%. For the same compound, the inhibition [7] was 5.17%, the inhibition [8] was 7.18% and the inhibition [9] was 25.8%. It also gave an inhibition [10] of -2.82%.

With `CC(/C=C1\SC(=S)N(CCCC(=O)Nc2ccc(C(=O)O)c(O)c2)C1=O)=C\c1ccccc1` the inhibition [1] was 64%, the inhibition [2] was 34.2% and the inhibition [3] was 46.5%. It also gave an inhibition [4] of 11.6%, an inhibition [5] of 13.7% and an inhibition [6] of 0.0916%. It also gave an inhibition [7] of 25.4%, an inhibition [8] of -1.92% and an inhibition [9] of 53%. For the same compound, the inhibition [10] was -7.24%.

`COCCOCCn1nc2c(c1C)-c1c(Cl)ccc3c1c(C)c(C(=O)O)n3CCCOc1cc(cc3c(F)c(Cl)ccc13)CCc1cc(nn1C)CSC2` showed an inhibition [1] of 77.7%, an inhibition [2] of 52.2% and an inhibition [3] of 36%. For the same compound, the inhibition [4] was -6.35%, the inhibition [5] was 5.63% and the inhibition [6] was -0.959%. The inhibition [7] was 28.8%, the inhibition [8] was 17.3% and the inhibition [9] was 59.9%. It also gave an inhibition [10] of 9.88%.

`Cc1cccc(NC(=O)CN2CCC(c3ccccn3)CC2)c1` gave an inhibition [1] of 8.44%, an inhibition [2] of 7.82% and an inhibition [3] of 18.5%. For the same compound, the inhibition [4] was -1.77%, the inhibition [5] was -0.35% and the inhibition [6] was 12.1%. The inhibition [7] was 0.0304%, the inhibition [8] was 0.438% and the inhibition [9] was 12.4%. The inhibition [10] was -6.98%.

Compound `CC1(C)CN2C(CS/C(=N\C3CCCCC3)NC3CCCCC3)=CSC2=N1` has an inhibition [1] of 7.88%, an inhibition [2] of 8.86% and an inhibition [3] of 4.05%. The inhibition [4] was 6.38%, the inhibition [5] was -0.86% and the inhibition [6] was 11.3%. It also gave an inhibition [7] of 5.96%, an inhibition [8] of -4.87% and an inhibition [9] of -0.781%. For the same compound, the inhibition [10] was -3.07%.

In the case of `Cc1nn(C)c2nc(NNC(=O)Nc3cc(Cl)nc(Cl)c3)cc(C(C)C)c12`, the inhibition [1] is reported as -2.58%, the inhibition [2] is reported as -8% and the inhibition [3] is reported as 28.9%. The inhibition [4] was -1.83%, the inhibition [5] was 7.5% and the inhibition [6] was 4.12%. It also gave an inhibition [7] of -2.44%, an inhibition [8] of 4.42% and an inhibition [9] of 16.6%. The inhibition [10] was -4.71%.

With `COc1cc(Nc2ccc([N+](=O)[O-])cc2C(=O)O)cc2ccccc12` the inhibition [1] was 71%, the inhibition [2] was 44% and the inhibition [3] was 91.9%. For the same compound, the inhibition [4] was 3.71%, the inhibition [5] was 5.25% and the inhibition [6] was 11.3%. It also gave an inhibition [7] of 33.4%, an inhibition [8] of 23.2% and an inhibition [9] of 67.3%. The inhibition [10] was 10.9%.

In the case of `Cc1cccc(F)c1C(=O)Nc1cnc(-c2cc3c(cc2Cl)OC(F)(F)O3)cn1`, the inhibition [1] is reported as 7.48%, the inhibition [2] is reported as 18.4% and the inhibition [3] is reported as 6.43%. It also gave an inhibition [4] of 1.79%, an inhibition [5] of 6.27% and an inhibition [6] of 8.82%. The inhibition [7] was -4.79%, the inhibition [8] was 9.65% and the inhibition [9] was -9.45%. It also gave an inhibition [10] of -6.24%.

`N[C@@H](CCP(=O)(O)O)C(=O)O` showed an inhibition [1] of 13%, an inhibition [2] of -0.846% and an inhibition [3] of -5.97%. For the same compound, the inhibition [4] was 7.42%, the inhibition [5] was -3.15% and the inhibition [6] was 12.1%. It also gave an inhibition [7] of -5.28%, an inhibition [8] of -0.24% and an inhibition [9] of 17.7%. It also gave an inhibition [10] of -0.352%.

`CCCC(=O)N[C@@H](Cc1ccc(O)cc1)C(=O)NCCCCCCCNCCCCN` was tested, and the inhibition [1] was 20.4%, the inhibition [2] was 2.86% and the inhibition [3] was -4.41%. It also gave an inhibition [4] of 4.46%, an inhibition [5] of -1.62% and an inhibition [6] of -3.56%. It also gave an inhibition [7] of -0.213%, an inhibition [8] of -0.749% and an inhibition [9] of 12.1%. For the same compound, the inhibition [10] was -4.14%.

`COc1ccc2cc(S(=O)(=O)N[C@H](CC(=O)N[C@H](Cc3ccc(CN4[C@H](C)CCC[C@@H]4C)cc3)C(=O)N(C)C(C)C)c3ccc4c(c3)OCO4)ccc2c1` was tested, and the inhibition [1] was 19.6%, the inhibition [2] was 30% and the inhibition [3] was -1.26%. It also gave an inhibition [4] of 12.6%, an inhibition [5] of 10.8% and an inhibition [6] of 7.79%. The inhibition [7] was -6.96%, the inhibition [8] was -5.31% and the inhibition [9] was 44.9%. The inhibition [10] was 3.72%.

With `N#Cc1ccc(NC(=O)Nc2ccccc2Br)c2nn[nH]c12` the inhibition [1] was 21%, the inhibition [2] was -2.94% and the inhibition [3] was 35.7%. It also gave an inhibition [4] of 0.686%, an inhibition [5] of 1.51% and an inhibition [6] of 9.25%. For the same compound, the inhibition [7] was -1.34%, the inhibition [8] was 7.57% and the inhibition [9] was 26.3%. It also gave an inhibition [10] of -8.36%.

Work on `CCc1cc2c(cc1CC)CC(NC[C@H](O)c1ccc(O)c3[nH]c(=O)ccc13)C2` yielded an inhibition [1] of 15.2%, an inhibition [2] of 1.41% and an inhibition [3] of 21.3%. It also gave an inhibition [4] of 0.834%, an inhibition [5] of -2.48% and an inhibition [6] of 12.9%. It also gave an inhibition [7] of 4.23%, an inhibition [8] of -5.22% and an inhibition [9] of 16.1%. The inhibition [10] was -8.46%.

In the case of `N=C(N)NCCSC(=N)N`, the inhibition [1] is reported as 16.4%, the inhibition [2] is reported as -0.668% and the inhibition [3] is reported as -5.42%. The inhibition [4] was -7.55%, the inhibition [5] was -9.52% and the inhibition [6] was -1.08%. It also gave an inhibition [7] of -4.9%, an inhibition [8] of -6.96% and an inhibition [9] of 8.29%. The inhibition [10] was -5.32%.

In the case of `Clc1ccccc1C(c1ccccc1)(c1ccccc1)n1cccn1`, the inhibition [1] is reported as 5.21%, the inhibition [2] is reported as -4.99% and the inhibition [3] is reported as 23.9%. It also gave an inhibition [4] of 5.94%, an inhibition [5] of -6.46% and an inhibition [6] of 15.4%. It also gave an inhibition [7] of -9.77%, an inhibition [8] of -6.62% and an inhibition [9] of 10.7%. The inhibition [10] was -9.12%.

For `O=C(O)c1ccccc1S(=O)(=O)NCCCCN1C(=O)c2cccc3cccc(c23)C1=O`, the inhibition [1] was 12%, the inhibition [2] was 3.23% and the inhibition [3] was 23.6%. It also gave an inhibition [4] of 8.25%, an inhibition [5] of 8% and an inhibition [6] of -8.34%. For the same compound, the inhibition [7] was 2.55%, the inhibition [8] was 12.5% and the inhibition [9] was 16.1%. It also gave an inhibition [10] of -8.5%.

With `NS(=O)(=O)c1c(Cl)ccc(NC(=O)Nc2cccc(Cl)c2Cl)c1O` the inhibition [1] was 14.2%, the inhibition [2] was 14.5% and the inhibition [3] was 10.9%. For the same compound, the inhibition [4] was -2.13%, the inhibition [5] was 3.51% and the inhibition [6] was 29%. The inhibition [7] was 6.41%, the inhibition [8] was 8.49% and the inhibition [9] was 16.5%. For the same compound, the inhibition [10] was -6.48%.
